{"source": "patent US10655126B2", "about": "“Methods and compositions to treat drug-induced diseases and conditions” (University of Vermont and State Agricultural College, priority 2015, dated 2020)", "key": {"MCJ [1]": {"test_system": "MCJ", "assay": "MCJ knockdown in human MCF7 cells, Western blot", "assay_type": "cell-based", "settings": "MCF7 cells transfected with h-siMCJ 5 nM, harvested after 30 h; FIG. 10", "description": "(§1) A human siMCJ has been tested in a human MCF7 cell line in vitro. […] Transfection methods included transecting human MCF7 cells transfected with h-siMCJ (5 nM) and after 30 h cells were harvested and MCJ expression was examined by Western blot analysis using an anti-human MCJ antibody. CoxIV (mitochondrial protein) and GAPDH were also examined as controls."}, "CoxIV": {"test_system": "CoxIV", "assay": "CoxIV level in human MCF7 cells, Western blot (control protein)", "assay_type": "cell-based", "settings": "MCF7 cells transfected with h-siMCJ 5 nM, harvested after 30 h; FIG. 10", "description": "as §1"}, "[2]": {"settings": "cited from earlier work"}, "MCJ [3]": {"test_system": "MCJ", "assay": "MCJ expression in liver in vivo by Western blot", "set-up": "species or system mouse", "description": "Analysis for MCJ expression in liver by Western blot analysis was performed as previously described (REF) using a specific anti-MCJ antibody. Expression of GAPDH was used as a control. Band intensities were quantified using the ImageJ software and normalized to the control (GAPDH).\n(§2) siMCJ oligos (double strand RNA oligos, see for example, SEQ ID NO: 22) containing the designed sequence were synthesized for in vivo studies (Ambion invivo siRNA). As a delivery system Invivofectamine 3.0 (Life Technology) was used because it is claimed to obtain high efficiency of in vivo delivery of siRNA into hepatocytes. Following the recommendation of the manufacturer, 1.7 mg/Kg was used in combination with invivofectamine 3.0. Preparation of siRNA with the Invivofectamine was performed as recommended by the manufacturer. Mice were administered with a single i.v. dose of siMCJ/invivofectamine in 150 μl."}, "wild-type mice": {"test_system": "wild-type mice", "assay": "Acetaminophen (APAP) mouse model of drug-induced liver injury: liver histology and serum ALT", "assay_type": "in vivo", "description": "Alanine aminotransferase (ALT) aspartate aminotransferase (AST) and bilirubin were determined in serum samples using the Selectra Junior SpinLab 100 analyzer (Vital Scientific) and the SpinReact reagents according to manufacturer's protocols.\nParaffin-embedded liver samples were sectioned, dewaxed, and hydrated. Immunohistochemistry (IHC) was performed using an anti-MCJ antibody and nuclei were counter-stained with hematoxylin. Quantification of staining area of each sample was analyzed using the Frida software and represented as the % of the stained area relative to the total area (power field). Ten fields per sample were pictured and analyzed. For liver histology, liver sections from paraffin-embedded tissue were stained with hematoxylin and eoxin (H&E staining). Frida software was used for quantification.\nas §2"}, "wild-type hepatocytes": {"test_system": "wild-type hepatocytes", "assay": "Protection of wild-type hepatocytes from acetaminophen toxic injury by siRNA for MCJ", "assay_type": "cell-based"}}}
{"molecule": "h-siMCJ: human siRNA sequence gaagatttcaactectagat (as printed), double stranded RNA oligo (GAAGATTTCAACTCCTAGCTT; listed as DNA, chemistry not given here; listed as Homo sapiens)", "values": [{"measurement": "MCJ protein expression", "setting": "MCJ [1]", "result": "sufficient to knockdown MCJ protein expression"}, {"measurement": "levels of CoxIV (another mitochondrial protein)", "setting": "CoxIV", "result": "not affecting the levels of CoxIV"}]}
{"molecule": "CC(=O)N[C@@H](CS)C(=O)O", "note": "[NAC, N-acetylcysteine]", "values": [{"measurement": "hepatoprotective effect when given after 8 h", "setting": "[2]; more than 8 h after uptake of acetaminophen", "result": "minimal to known"}, {"measurement": "time after uptake of acetaminophen within which administration has a hepatoprotective effect", "setting": "[2]; patients with acute hepatic failure due to overdose of acetaminophen", "result": "≤ 8", "unit": "h"}]}
{"molecule": "siMCJ: double strand RNA oligos (see for example SEQ ID NO: 22, mouse siRNA sequence gcgagaggctagtcttatt), given i.v. with Invivofectamine 3.0 (GCGAGAGGCTAGTCTTATT; Invivofectamine 3.0 formulation, further chemistry not given here; listed as Mus musculus)", "values": [{"measurement": "levels of endogenous MCJ in the liver", "setting": "MCJ [3]; 24 h after single i.v. dose of siMCJ 1.7 mg/Kg with invivofectamine, wild-type mice, FIG. 7", "result": "almost undetectable"}, {"measurement": "restoration of MCJ levels in liver", "setting": "MCJ [3]; after 9 days of administration, single i.v. dose of siMCJ, FIG. 7", "result": "not a full restoration of MCJ levels"}, {"measurement": "levels of MCJ in the liver of APAP-mice", "setting": "MCJ [3]; siMCJ i.v. 20 h before acetaminophen 360 mg/Kg i.p., harvested 24 h after acetaminophen, relative to APAP-mice without siMCJ, FIG. 8A", "result": "markedly reduced"}, {"measurement": "levels of MCJ in the liver", "setting": "MCJ [3]; siMCJ i.v. 24 h after acetaminophen 360 mg/Kg i.p., harvested 48 h after acetaminophen, FIG. 9A", "result": "almost undetectable"}, {"measurement": "time for which levels of MCJ in liver remained very low", "setting": "MCJ [3]; single i.v. dose of siMCJ 1.7 mg/Kg with invivofectamine, FIG. 7", "result": "at least 7 days"}, {"measurement": "areas of tissue damage in liver sections (H&E histology)", "setting": "wild-type mice; siMCJ i.v. 20 h before acetaminophen 360 mg/Kg i.p., harvested 24 h after acetaminophen, FIG. 8B", "result": "almost not detected"}, {"measurement": "quantification of the damage area in the livers", "setting": "wild-type mice; siMCJ i.v. 20 h before acetaminophen, n=5, p<0.05, FIG. 8C", "result": "protective effect"}, {"measurement": "levels of ALT in serum", "setting": "wild-type mice; siMCJ i.v. 24 h after acetaminophen 360 mg/Kg i.p., harvested 48 h after acetaminophen, p<0.01 vs control mice, FIG. 9B", "result": "drastically lower"}, {"measurement": "protection from toxic injury caused by acetaminophen", "setting": "wild-type hepatocytes", "result": "protected wild-type hepatocytes from the development of toxic injury"}]}
